Data reported in paper PMC11532403 (Signal Transduction and Targeted Therapy, 2024).
Where “and” joins values, the source holds several entries; their conditions need not be identical. Equal entries are not always repeated.

Tested on: RET-altered solid tumors
Experiment: Phase 1 trial: anti-tumor efficacy (RECIST 1.1)
Type: in vivo, human
Method: Radiologic tumor assessments were conducted by computed tomography (CT) or magnetic resonance imaging (MRI) of brain, chest, abdomen, and pelvis at baseline, 4 weeks for the first tumor assessment, then every 8 weeks (± 7 days) for 1 year, and every 12 weeks (± 7 days) thereafter. MTC patients were longitudinally monitored for serum calcitonin and carcinoembryonic antigen (CEA) levels.

[1] = All patients, 160 mg BID (n = 95)
[2] = All patients, 200 mg BID (n = 10)
[3] = All patients, all doses (n = 116)
[4] = Previously treated, 160 mg BID (n = 58)
[5] = Previously treated, 200 mg BID (n = 8)
[6] = Previously treated, all doses (n = 76)
[7] = RP2D 160 mg BID, MTC, all (n = 23)
[8] = RP2D 160 mg BID, NSCLC, all (n = 64)
[9] = RP2D 160 mg BID, PTC, all (n = 7)
[10] = RP2D, MTC, previously treated (n = 15)
[11] = RP2D, MTC, treatment-naïve (n = 8)
[12] = RP2D, NSCLC, previously treated (n = 36)
[13] = RP2D, NSCLC, treatment-naïve (n = 28)
[14] = RP2D, PTC, previously treated (n = 6)

COc1ccc(CN2C3CC2CN(c2ccc(-c4cc(N5CC(C)(O)C5)cn5ncc(C#N)c45)cn2)C3)cn1 [SY-5007, 6-(3-hydroxy-3-methylazetidin-1-yl)-4-(6-(6-((6-methoxypyridin-3-yl)methyl)-3,6-diazabicyclo[3.1.1]heptan-3-yl)pyridin-3-yl)pyrazolo[1,5-a]pyridine-3-carbonitrile]
Patients with target tumor shrinkage (111/116): 95.7%
Progressive disease (All patients, 20 mg QD to 120 mg BID cohorts): 0 (0.0) n (%)
DCR (95% CI) (All patients, 20 mg QD to 120 mg BID cohorts, 20 mg once daily): 100.0 (2.5–100.0) %
Median TTR (95% CI) (All patients, 20 mg QD to 120 mg BID cohorts, 20 mg twice daily): 6.73 (NE-NE) months
DCR (95% CI) (All patients, 20 mg QD to 120 mg BID cohorts, 40 mg twice daily): 100.0 (29.2–100.0) %
Median TTR (95% CI) (All patients, 20 mg QD to 120 mg BID cohorts, 120 mg twice daily): 8.37 (1.18-NE) months
DCR (95% CI) [1]: 94.7 (88.1–98.3) %
Median DoR (95% CI) [1]: 13.0 (12.8-NE) months
Median PFS (95% CI) [1]: 15.4 (13.8-NE) months
Median TTR (95% CI) [1]: 2.79 (2.75–4.63) months
ORR (95% CI) [1]: 58.9 (48.4–68.9) %
Partial response [1]: 56 (58.9) n (%)
Progressive disease [1]: 5 (5.3) n (%)
Stable disease [1]: 34 (35.8) n (%)
DCR (95% CI) [2]: 100.0 (69.2–100.0) %
Median TTR (95% CI) [2]: 1.14 (0.91-NE) months
ORR (95% CI) [2]: 60.0 (26.2–87.8) %
Partial response [2]: 6 (60.0) n (%)
Progressive disease [2]: 0 (0.0) n (%)
Stable disease [2]: 4 (40.0) n (%)
DCR (95% CI) [3]: 95.7 (90.2–98.6) %
Median DoR (95% CI) [3]: 19.9 months and 19.9 (12.8–NE) months
Median PFS (95% CI) [3]: 21.1 months and 21.1 (13.8–NE) months
Median TTR (95% CI) [3]: 2.82 (2.75–4.66) months
ORR (95% CI) [3]: 57.8 (48.2–66.9) %
Partial response [3]: 67 (57.8) n (%)
Progressive disease [3]: 5 (4.3) n (%)
Stable disease [3]: 44 (37.9) n (%)
Estimated 12-month PFS rate (MTC at RP2D): 85.2%
Estimated 6-month PFS rate (NSCLC at 160 mg BID): 89.6%
Estimated 12-month PFS rate (NSCLC at 160 mg BID): 67.5%
Estimated 12-month PFS rate (PTC at RP2D): 100.0%
Median PFS (95% CI) (Previously treated, 20 mg QD (n = 1)): 4.83 (NE-NE) months
Progressive disease (Previously treated, 20 mg QD to 120 mg BID cohorts): 0 (0.0) n (%)
DCR (95% CI) (Previously treated, 20 mg QD to 120 mg BID cohorts, 20 mg once daily): 100.0 (2.5–100.0) %
Median TTR (95% CI) (Previously treated, 20 mg QD to 120 mg BID cohorts, 20 mg twice daily): 6.73 (NE-NE) months
DCR (95% CI) (Previously treated, 20 mg QD to 120 mg BID cohorts, 40 mg twice daily): 100.0 (15.8–100.0) %
DCR (95% CI) (Previously treated, 20 mg QD to 120 mg BID cohorts, 80 mg twice daily): 100.0 (29.2–100.0) %
Median TTR (95% CI) (Previously treated, 20 mg QD to 120 mg BID cohorts, 120 mg twice daily): 8.37 (1.18-NE) months
DCR (95% CI) [4]: 94.8 (85.6–98.9) %
Median DoR (95% CI) [4]: 13.0 (9.23-NE) months
Median PFS (95% CI) [4]: 15.4 (13.8-NE) months
Median TTR (95% CI) [4]: 4.56 (2.75-NE) months
ORR (95% CI) [4]: 51.7 (38.2–65.0) %
Partial response [4]: 30 (51.7) n (%)
Progressive disease [4]: 3 (5.2) n (%)
Stable disease [4]: 25 (43.1) n (%)
DCR (95% CI) [5]: 100.0 (63.1–100.0) %
Median TTR (95% CI) [5]: 3.15 (0.91-NE) months
ORR (95% CI) [5]: 50.0 (15.7–84.3) %
Partial response [5]: 4 (50.0) n (%)
Progressive disease [5]: 0 (0.0) n (%)
Stable disease [5]: 4 (50.0) n (%)
DCR (95% CI) [6]: 96.1 (88.9–99.2) %
Median DoR (95% CI) [6]: 19.9 (12.8-NE) months
Median TTR (95% CI) [6]: 4.63 (2.75-NE) months
ORR (95% CI) [6]: 51.3 (39.6–63.0) %
Partial response [6]: 39 (51.3) n (%)
Progressive disease [6]: 3 (3.9) n (%)
Stable disease [6]: 34 (44.7) n (%)
Patients with progression or death (RET fusion-positive NSCLC at 160 mg BID): 26.6%
DCR (95% CI) [7]: 91.3 (72.0-98.9) %
Median TTR (95% CI) [7]: 4.66 (2.75-NE) months
ORR (95% CI) [7]: 52.2 (30.6-73.2) %
Partial response [7]: 12 (52.2) n (%)
Progressive disease [7]: 2 (8.7) n (%)
Stable disease [7]: 9 (39.1) n (%)
DCR (95% CI) [8]: 96.9 (89.2-99.6) %
Median DoR (95% CI) [8]: 13.0 months and 13.0 (9.26-NE) months
Median PFS (95% CI) [8]: 15.4 months and 15.4 (10.1-NE) months
Median TTR (95% CI) [8]: 2.75 (1.01-2.89) months
ORR (95% CI) [8]: 64.1 (51.1-75.7) %
Partial response [8]: 41 (64.1) n (%)
Progressive disease [8]: 2 (3.1) n (%)
Stable disease [8]: 21 (32.8) n (%)
DCR (95% CI) [9]: 100.0 (59.0-100.0) %
ORR (95% CI) [9]: 42.9 (9.9-81.6) %
Partial response [9]: 3 (42.9) n (%)
Progressive disease [9]: 0 (0.0) n (%)
Stable disease [9]: 4 (57.1) n (%)
DCR (95% CI) [10]: 100.0 (78.2-100.0) %
ORR (95% CI) [10]: 40.0 (16.3-67.7) %
Partial response [10]: 6 (40.0) n (%)
Progressive disease [10]: 0 (0.0) n (%)
Stable disease [10]: 9 (60.0) n (%)
DCR (95% CI) [11]: 75.0 (34.9-96.8) %
Median TTR (95% CI) [11]: 2.75 (0.85-NE) months
ORR (95% CI) [11]: 75.0 (34.9-96.8) %
Partial response [11]: 6 (75.0) n (%)
Progressive disease [11]: 2 (25.0) n (%)
Stable disease [11]: 0 (0.0) n (%)
DCR (95% CI) [12]: 94.4 (81.3-99.3) %
Median DoR (95% CI) [12]: 13.0 (9.20-NE) months
Median PFS (95% CI) [12]: 13.8 (10.1-NE) months
Median TTR (95% CI) [12]: 2.75 (0.98-NE) months
ORR (95% CI) [12]: 58.3 (40.8-74.5) %
Partial response [12]: 21 (58.3) n (%)
Progressive disease [12]: 2 (5.6) n (%)
Stable disease [12]: 13 (36.1) n (%)
DCR (95% CI) [13]: 100.0 (87.7-100.0) %
Median DoR (95% CI) [13]: 14.5 (9.26-NE) months
Median PFS (95% CI) [13]: 15.5 (9.23-NE) months
Median TTR (95% CI) [13]: 1.11 (0.91-3.15) months
ORR (95% CI) [13]: 71.4 (51.3-86.8) %
Partial response [13]: 20 (71.4) n (%)
Progressive disease [13]: 0 (0.0) n (%)
Stable disease [13]: 8 (28.6) n (%)
DCR (95% CI) [14]: 100.0 (54.1-100.0) %
ORR (95% CI) [14]: 50.0 (11.8-88.2) %
Partial response [14]: 3 (50.0) n (%)
Progressive disease [14]: 0 (0.0) n (%)
Stable disease [14]: 3 (50.0) n (%)
DCR (95% CI) (RP2D, PTC, treatment-naïve (n = 1)): 100.0 (2.5-100.0) %
